Test system: CYP1A
Assay: CYP1A induction in transplanted murine subcutaneous hepatic tissue, tissue staining (Example 3)
Assay type: in vivo, mouse
Conditions: 120 days after transplantation; intraperitoneal once a day for three days; tissue staining 24 hours after final administration
Method: The murine hepatic tissue cell sheet as obtained in Example 1 was transplanted by application into a murine subcutaneous site having undergone the induction of angiogenesis in accordance with the method of transplanting a hepatic cell sheet as shown in Example 1. One hundred twenty days after transplantation, 3-methylcholantrene (Sigma-Aldrich, St. Louis, Mo.) was intraperitoneally administered once a day and continuously for three days, and 24 hours after the final administration, the mouse was killed and the hepatic tissue prepared was subjected to tissue staining (Example 3). […] Further, CYP1A means CYP1A activity.

SMILES: Cc1ccc2cc3c(ccc4ccccc43)c3c2c1CC3 [3-methylcholantrene]
- induction of CYP1A (CYP1A activity) in prepared murine subcutaneous hepatic tissue: strongly induced

Reference: patent US20100239498A1, “METHOD OF MAINTAINING THE FUNCTION OF LIVER TISSUE CELLS OVER LONG TIME” (priority 2006, published 2010)
